Results on 9 compounds are retold here after patent US9522890B2, “Compounds acting at multiple prostaglandin receptors giving a general anti-inflammatory response” (Allergan, Inc., priority 2011, dated 2016).

Common to all, as to type: cell-based
Assay [1] deals with T1, human recombinant prostanoid EP3 receptor (Homo sapiens, UniProt P43115).
T1 construct: expressed in transfected cells; co-transfected with chimeric Gqi-HA
T1 sequence (P43115 1-390): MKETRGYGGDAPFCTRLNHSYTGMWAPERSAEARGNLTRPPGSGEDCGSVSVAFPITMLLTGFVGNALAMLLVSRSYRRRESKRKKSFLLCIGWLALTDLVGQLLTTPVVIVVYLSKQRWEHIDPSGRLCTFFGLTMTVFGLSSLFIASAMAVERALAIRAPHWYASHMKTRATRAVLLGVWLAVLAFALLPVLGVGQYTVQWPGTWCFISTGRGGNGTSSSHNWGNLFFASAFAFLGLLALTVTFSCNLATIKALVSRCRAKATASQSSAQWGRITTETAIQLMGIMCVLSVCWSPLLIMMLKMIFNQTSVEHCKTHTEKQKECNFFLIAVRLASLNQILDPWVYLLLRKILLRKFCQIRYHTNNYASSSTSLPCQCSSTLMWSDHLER
Description: FLIPR Ca2+ signaling PG antagonist assay, EP3 receptor stable cell line. Conditions: HEK-293 EBNA cells with chimeric Gqi, standard agonist PGE2. The procedure:
(§1) The above compounds were tested for PG antagonist activity as follows using human recombinant prostanoid receptor (DP1, EP1-4, FP, IP and TP) stable cell lines:
(§2) In order to measure the response of Gs and Gi coupled prostanoid receptors as a Ca^2+ signal, chimeric G protein cDNAs were used. Stable cell lines over-expressing human prostanoid DP1, EP1-4, FP, IP, and TP receptors were established as follows:
(§3) Briefly, human prostanoid DP1, EP2, and EP4 receptor cDNAs were co-transfected with chimeric Gqs cDNA containing a haemagglutanin (HA) epitope; human prostanoid EP3 receptors were co-transfected with chimeric Gqi-HA; human EP1, FP, IP, and TP receptor cDNAs were expressed with no exogenous G-proteins. Gqs and Gqi chimeric cDNAs (Molecular Devices, Sunnyvale, Calif., U.S.A.), as well as cDNAs of prostanoid receptors, were cloned into a pCEP4 vector with a hygromycin B selection marker. Transfection into HEK-293 EBNA (Epstein-Barr virus nuclear antigen) cells was achieved by the FuGENE 6 transfection Reagent (Roche Applied Science, Indianapolis, Ind., USA). Stable transfectants were selected according to hygromycin resistance. Because Gqs and Gqi contained an HA epitope, G-protein expression was detected by Western blotting analysis using anti-mouse HA monoclonal antibody and horseradish peroxidase (HRP)-conjugated secondary antibody, while functional expression of prostanoid receptors was detected by FLIPR screening (Matias et al., 2004). These stable cell lines were validated using previously published antagonists at 10 μM against serial dilutions of standard agonists by FLIPR functional assays for Ca^2+ Signaling (as described below).
(§4) Ca^2+ signaling studies were performed using a FLIPR TETRA system (Molecular Devices, Sunnyvale, Calif., USA) in the 384-format. This is a high-throughput instrument for cell-based assays to monitor Ca^2+ signaling associated with GPCRs and ion channels. Cells were seeded at a density of 5×10^4 cells/well in BioCoat poly-D-lysine coated, black wall, clear bottom 384-well plates (BD Biosciences, Franklin lakes, NJ, USA) and allowed to attach overnight in an incubator at 37° C. The cells were then washed twice with HBSS-HEPES buffer (Hanks' balanced salt solution without bicarbonate and phenol red, 20 mM HEPES, pH 7.4) using an ELx405 Select CW Microplate Washer (BioTek, Winooski, Vt., USA). After 60 min of dye-loading in the dark using the Ca^2+-sensitive dye Fluo-4AM (Invitrogen, Carlsbad, Calif., USA), at a final concentration of 2×10^−6M, the plates were washed 4 times with HBSS-HEPES buffer to remove excess dye and leaving 50 μl of buffer in each well. The plates were then placed in the FLIPR TETRA instrument and allowed to equilibrate at 37° C. Compounds were added in a 25 μl volume to each well to give final concentrations of 0.1 μM, 0.3 μM, 1 μM, 3 μM, 10 μM, and 30 μM; or 0.067 μM, 0.1 μM, 0.2 μM, 0.3 μM, 0.67 μM, and 1 μM for cells over-expressing TP receptors. After 4.5 minutes, a 7-point serial dilution of the standard agonist for the corresponding receptor, in a 25 μl volume was injected at the final concentrations from 10^−11M to 10^−5M in 10-fold serial dilution increments for cells expressing human recombinant DP1, EP1, EP2, EP3, EP4, FP, and IP receptors. The dose range for the standard agonist for human recombinant TP receptors was from 10^−12M to 10^−6M. HBSS-HEPES buffer was used as the negative control for the standard agonists. Cells were excited with LED (light emitting diode) excitation at 470-495 nm and emission was measured through an emission filter at 515-575 nm. Assay plates were read for 3.5 minutes using the FLIPR^TETRA. The peak increase in fluorescence intensity was recorded for each well. On each plate, negative controls, dose response of positive controls, and co-treatments of antagonist-agonist for each dose were in triplicates. Standard agonists were as follows: DP=BW 245C, EP1-EP4=PGE2, FP=17-phenyl-PGF2α, IP=Cicaprost, and TP=U-46619. […]

The target of assay [2] is T2, human recombinant prostanoid EP2 receptor (Homo sapiens, UniProt P43116).
T2 construct: expressed in transfected cells; co-transfected with chimeric Gqs-HA
Description: FLIPR Ca2+ signaling PG antagonist assay, EP2 receptor stable cell line. The following applies: HEK-293 EBNA cells with chimeric Gqs, standard agonist PGE2. The method, then:
as §1, §2, §3, §4

Assay [3] addresses T3, human recombinant prostanoid TP receptor (Homo sapiens, UniProt P21731).
T3 construct: expressed in transfected cells
T3 sequence (P21731 1-343): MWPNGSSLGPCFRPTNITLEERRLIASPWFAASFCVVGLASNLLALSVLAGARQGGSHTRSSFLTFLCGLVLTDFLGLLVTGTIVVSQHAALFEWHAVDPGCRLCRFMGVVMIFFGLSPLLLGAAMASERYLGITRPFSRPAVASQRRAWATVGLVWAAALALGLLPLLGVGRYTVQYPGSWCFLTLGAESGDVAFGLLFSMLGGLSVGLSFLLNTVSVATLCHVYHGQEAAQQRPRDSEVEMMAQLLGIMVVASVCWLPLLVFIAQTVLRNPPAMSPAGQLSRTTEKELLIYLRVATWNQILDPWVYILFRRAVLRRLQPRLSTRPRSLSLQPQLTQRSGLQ
Description: FLIPR Ca2+ signaling PG antagonist assay, TP receptor stable cell line. Conditions: HEK-293 EBNA cells, standard agonist U-46619. The procedure:
as §1, §2, §3, §4

T2 sequence (P43116 whole entry): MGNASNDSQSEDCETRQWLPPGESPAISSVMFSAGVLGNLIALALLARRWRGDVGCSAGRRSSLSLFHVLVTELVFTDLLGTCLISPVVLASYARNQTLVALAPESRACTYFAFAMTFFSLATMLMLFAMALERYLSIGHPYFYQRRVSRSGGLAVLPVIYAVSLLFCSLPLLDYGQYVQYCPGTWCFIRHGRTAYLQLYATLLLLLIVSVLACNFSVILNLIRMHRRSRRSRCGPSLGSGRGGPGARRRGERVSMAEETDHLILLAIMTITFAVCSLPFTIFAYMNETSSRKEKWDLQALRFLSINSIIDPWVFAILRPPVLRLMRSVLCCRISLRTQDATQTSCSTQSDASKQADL

Usually Kb stands for the equilibrium dissociation constant of an antagonist, usually derived from a functional assay. On to `CCC(CC)COc1ccc(Br)cc1Cn1nc(C(=O)O)cc1C` [Example 6, 1-[5-BROMO-2-(2-ETHYL-BUTOXY)-BENZYL]-5-METHYL-1H-PYRAZOLE-3-CARBOXYLIC ACID], for which the Kb was ≥ 10000 nM in assay [1], 6200 nM in assay [2] and < 1 nM in assay [3].

As to `Cc1cc(C(=O)O)nn1Cc1cc(Br)ccc1OCC1CCC1` [Example 8, 1-(5-BROMO-2-CYCLOBUTYLMETHOXY-BENZYL)-5-METHYL-1H-PYRAZOLE-3-CARBOXYLIC ACID], the antagonist equilibrium constant (Kb) in assay [1] was 4100 nM; in assay [2] it was ≥ 10000 nM; in assay [3] it was 8 nM.

Regarding `Cc1cc(C(=O)O)nn1Cc1cc(Br)ccc1OCC1CCCC1` [Example 2, 1-(5-BROMO-2-CYCLOPENTYLMETHOXY-BENZYL)-5-METHYL-1H-PYRAZOLE-3-CARBOXYLIC ACID], the Kb in assay [1] is ≥ 10000 nM; in assay [2], ≥ 10000 nM; in assay [3], < 1 nM.

As for `Cc1cc(C(=O)O)nn1Cc1cc(C(F)(F)F)ccc1OCC1CCCC1` [Example 3, 1-(2-CYCLOPENTYLMETHOXY-5-TRIFLUOROMETHYL-BENZYL)-5-METHYL-1H-PYRAZOLE-3-CARBOXYLIC ACID], the Kb in assay [1] is ≥ 10000 nM; in assay [2], 8900 nM; in assay [3], 1 nM.

As for `Cc1cc(C(=O)O)nn1Cc1cc(Br)ccc1OCC1(C(F)(F)F)CCC1` [Example 9, 1-[5-BROMO-2-(1-TRIFLUOROMETHYL-CYCLOBUTYLMETHOXY)-BENZYL]-5-METHYL-1H-PYRAZOLE-3-CARBOXYLIC ACID], the results for the antagonist dissociation constant (Kb) in assay [1], in assay [2] and in assay [3] were 2600 nM, 3300 nM and 10 nM, respectively.

With `CCC(C)(CC)COc1ccc(Br)cc1Cn1nc(C(=O)O)cc1C` [Example 7, 1-[5-BROMO-2-(2-ETHYL-2-METHYL-BUTOXY)-BENZYL]-5-METHYL-1H-PYRAZOLE-3-CARBOXYLIC ACID], the results for the Kb in assay [1], in assay [2] and in assay [3] were ≥ 10000 nM, 3600 nM and 11 nM, respectively.

In the case of `COc1ccc(COc2ccc(Cl)cc2Cn2nc(C(=O)NS(=O)(=O)c3ccccc3)cc2C)cc1` [Example 4, N-{1-[5-CHLORO-2-(4-METHOXY-BENZYLOXY)-BENZYL]-5-METHYL-1H-PYRAZOLE-3-CARBONYL}-BENZENESULFONAMIDE], the antagonist dissociation constant (Kb) in assay [1] came out at 2500 nM; in assay [2], 4900 nM; in assay [3], 2 nM.

As to `Cc1cc(C(=O)NS(=O)(=O)c2ccccc2)nn1Cc1cc(Cl)ccc1OCc1ccc(Cl)cc1` [Example 5, N-{1-[5-CHLORO-2-(4-CHLORO-BENZYLOXY)-BENZYL]-5-METHYL-1H-PYRAZOLE-3-CARBONYL}-BENZENESULFONAMIDE], the values for the antagonist dissociation constant (Kb) in assay [1], in assay [2] and in assay [3] were 1500 nM, ≥ 10000 nM and 10 nM, respectively.

Regarding `Cc1cc(C(=O)O)nn1Cc1cc(Cl)ccc1OCC1CCCC1` [Example 1, 1-(5-CHLORO-2-CYCLOPENTYLMETHOXY-BENZYL)-5-METHYL-1H-PYRAZOLE-3-CARBOXYLIC ACID], the Kb in assay [1] was ≥ 10000 nM; in assay [2], ≥ 10000 nM; in assay [3], < 1 nM.
